Values of other authors as cited in patent US20240041861A1, “COMPOSITIONS AND METHODS FOR TREATMENT AND PROPHYLAXIS OF VIRAL INFECTIONS” (priority 2020, published 2024).
In brackets after ≈: the same amount, converted by molar mass. Like-named read-outs stand apart in the source and are kept apart here. Blank lines part the entries; values can stand above or below the compound they belong to.

Columns and labels:
[1] = in vivo
PDE5 = PDE5 (Homo sapiens, UniProt O76074)
[2] = not given; remark: listed apart in the source
[3] = not given; remark: listed apart in the source
[4] = in vivo; remark: listed apart in the source
[5] = human, in vivo

Structure (SMILES): CC(C)(C)OC(=O)N[C@H]1CCCCC/C=C\[C@@H]2C[C@@]2(C(=O)NS(=O)(=O)C2CC2)NC(=O)[C@@H]2C[C@@H](OC(=O)N3Cc4cccc(F)c4C3)CN2C1=O [Danoprevir]
EC50 (replicon GT1b): 1.6 nM
IC50 (NS3/4A HCV protease GT1b): 0.2 to 0.4 nM

Structure (SMILES): CCCc1nn(C)c2c(=O)[nH]c(-c3cc(S(=O)(=O)N4CCNCC4)ccc3OCC)nc12 [N-desmethyl metabolite]
bound to plasma proteins: approximately 96%
terminal half lives [1]: about 4 hours
in vitro potency for PDE5 relative to the parent drug (PDE5): approximately 50%

solubility ([2]; pH 1): 2940 µg/mL (≈ 6440 µM)
solubility ([2]; pH 2): 295 µg/mL (≈ 646 µM)
solubility ([2]; pH 7.4): 0.81 µg/mL (≈ 1.77 µM)
Structure (SMILES): CC(C)Nc1cccnc1N1CCN(C(=O)c2cc3cc(NS(C)(=O)=O)ccc3[nH]2)CC1 [delavirdine free base]

Structure (SMILES): CCN(CCO)CCCC(C)Nc1ccnc2cc(Cl)ccc12 (centres unmarked) [hydroxychloroquine]
half-life ([3]; in vivo): about 40 days
mean fraction of the dose absorbed ([3]; in vivo): 0.74
dose excreted as the parent drug in urine ([3]; in vivo, po): approximately 10%
half-life ([3]; in vivo, po, 200 mg): 22.4 days
mean peak blood concentration ([3]; single 200 mg oral dose of PLAQUENIL, healthy males, blood): 129.6 ng/mL
half-life ([3]; single 200 mg oral dose, healthy males, plasma): 123.5 days
fraction of the dose absorbed [4]: 30-100%
renal clearance of unchanged drug [4]: 16-30%
absorption half-life ([4]; po): 0.12 to 0.17 days
terminal half-life ([4]; po): 40 to 50 days
time of peak plasma levels ([4]; po): 3 to 4 h

plasma levels relative to those obtained after the ritonavir dose of 600 mg twice daily [5]: less than 7%
Structure (SMILES): CC(C)c1nc(CN(C)C(=O)N[C@H](C(=O)N[C@@H](Cc2ccccc2)C[C@H](O)[C@H](Cc2ccccc2)NC(=O)OCc2cncs2)C(C)C)cs1 [ritonavir]

bound to plasma proteins: approximately 96%
mean steady state volume of distribution (Vss) [1]: 105 L
terminal half lives [1]: about 4 hours
Structure (SMILES): CCCc1nn(C)c2c(=O)[nH]c(-c3cc(S(=O)(=O)N4CCN(C)CC4)ccc3OCC)nc12 [sildenafil]
